From US12091684B2, “Platelet-derived mitochondria treatment and method of generating multipotent cells” (Hackensack Meridian Health, Inc., priority 2020, dated 2024)

What was measured:
CXCR4 = CXCR4 (Homo sapiens, UniProt P61073); conditions: 30 μM, 4 hours, purified PB-IPC nuclei with labeled mitochondria
Procedure: To determine whether the action of SDF-1/CXCR4 contributed to the penetration of mitochondria into nuclei, a blocking experiment with CXCR4 receptor antagonist AMD3100 was performed. The purified PB-IPC's nuclei were treated with MitoTracker Deep Red-labeled purified mitochondria in the presence or absence of AMD 3100 (30 μM). The equal concentration of solvent DMSO served as a control. After 4 hours of the treatment, nuclei were washed twice with PBS and prepared for flow cytometry.

γ-secretase = test: DAPT-blocking experiment (CD34 expression by flow cytometry); assay type: cell-based, human; conditions: PB-IPCs, 10 μM DAPT, 100 μg/mL mitochondria where present, 7-14 days, n=4
Procedure: For a DAPT-blocking experiment, PB-IPCs were treated with 100 μg/mL mitochondria plus 10 μM DAPT (Sigma, Saint Louis, MO, USA, Catalog #D5942) for 7-14 days in non-tissue, culture-treated 24-well plates or Petri dishes with serum-free NutriStem® hPSC XF culture medium (Corning, New York, NY, USA), at 37° C. and 8% CO2. Subsequently, both treated and untreated PB-IPC were collected to examine the expression of CD34 by flow cytometry.

Chain of CXCR4 (P61073 whole entry): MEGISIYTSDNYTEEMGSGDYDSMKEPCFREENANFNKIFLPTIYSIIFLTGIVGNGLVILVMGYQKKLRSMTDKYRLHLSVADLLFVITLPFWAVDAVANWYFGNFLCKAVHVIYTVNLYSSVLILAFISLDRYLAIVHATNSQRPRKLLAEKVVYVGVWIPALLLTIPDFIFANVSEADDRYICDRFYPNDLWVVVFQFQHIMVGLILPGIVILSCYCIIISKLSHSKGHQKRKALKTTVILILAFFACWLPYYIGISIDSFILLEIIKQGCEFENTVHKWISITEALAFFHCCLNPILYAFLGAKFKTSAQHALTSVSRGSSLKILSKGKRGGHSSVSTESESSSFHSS

percentage of MitoTracker Deep Red-positive nuclei (CXCR4)	Compound	percentage of CD34+ cells (γ-secretase)
markedly reduced	c1cc(CN2CCCNCCNCCCNCC2)ccc1CN1CCCNCCNCCCNCC1 [AMD 3100]	–
–	C[C@H](NC(=O)Cc1cc(F)cc(F)c1)C(=O)N[C@H](C(=O)OC(C)(C)C)c1ccccc1 [DAPT, N—[N-(3,5-difluorophenacetyl)-L-alanyl]-S-phenylglycine t-butyl ester]	2.59%±0.13%
